Experimental data: US5258362A, “Renin inhibiting compounds” (Abbott Laboratories, priority 1992, dated 1993)

What follows are compounds tested against T1, human renal renin (Homo sapiens, UniProt P00797) (assay: Inhibition of human renal renin in vitro (angiotensin I formed, measured by radioimmunoassay)). Conditions: human renal renin with renin substrate (human angiotensinogen), 37° C., pH 6.0.
T1 construct: human renal renin, free from acid proteolytic activity; from tissue; host or cells: human kidney (from the word 'renal')
T1 sequence (P00797 67-406): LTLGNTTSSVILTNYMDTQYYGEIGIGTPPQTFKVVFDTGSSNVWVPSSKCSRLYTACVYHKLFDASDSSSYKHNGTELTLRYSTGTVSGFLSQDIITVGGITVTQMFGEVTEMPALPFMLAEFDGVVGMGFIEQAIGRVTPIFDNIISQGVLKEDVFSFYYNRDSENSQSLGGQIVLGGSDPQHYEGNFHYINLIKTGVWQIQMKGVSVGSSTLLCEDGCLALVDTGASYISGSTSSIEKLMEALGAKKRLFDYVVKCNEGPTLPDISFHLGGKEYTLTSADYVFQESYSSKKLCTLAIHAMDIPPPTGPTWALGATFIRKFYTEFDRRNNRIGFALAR
Assay type: biochemical
Description: At the end of the incubation, the amount of angiotensin I formed is measured by radioimmunoassay and the molar concentration required to cause 50% inhibition, expressed as the IC50 is calculated.

Going from CC([C@H]1CO[C@@H]1[C@H](O)[C@H](CC1CCCCC1)NC(=O)[C@H](Cc1cnc[nH]1)NC(=O)[C@H](Cc1ccccc1)NC(=O)OC(C)(C)C)C(F)(F)F (stereo partly drawn) [Example 47, Boc-Phe-His Amide of (1R,2S,2'S,3'S)-2-Amino-3-cyclohexyl-1-hydroxy-1-[3'-(1,1,1-trifluoroisopropyl)oxetan-2'-yl]propane] to CC(C)[C@H]1CO[C@@H]1[C@H](O)[C@H](CC1CCCCC1)NC(=O)[C@H](Cc1cnc[nH]1)NC(=O)[C@H](Cc1ccccc1)NC(=O)OC(C)(C)C [Example 41, Boc-Phe-His Amide of (1R,2S,2'S,3'S)-2-Amino-3-cyclohexyl-1-hydroxy-1-[3'-(isopropyl)oxetan-2'- yl]propane], the IC50 falls from 1.2 nM to 0.61 nM (2-fold). The second is the more potent here.

First: CC[C@H]1CO[C@@H]1[C@H](O)[C@H](CC1CCCCC1)NC(=O)[C@H](CC(C)C)NC(=O)[C@H](Cc1ccccc1)Cn1ccnc1 [Example 182, (2R)-2-Benzyl-3-(imidazol-1-yl)propionyl-Leucine Amide of (1R,2S,2'S,3'S)-2-Amino-3-cyclohexyl-1-[3'-(ethyl)oxetan-2'-yl]-1-(hydroxy)propane]
Second: CC[C@H]1CO[C@@H]1[C@H](O)[C@H](CC1CCCCC1)NC(=O)C(Cc1cscn1)NC(=O)[C@@H](CC(=O)N1CCN(C)CC1)Cc1ccccc1 (stereo partly drawn) [Example 70, (2R)-2-Benzyl-3-[(4-methylpiperazin-1-yl)carbonyl]propionyl-(4-thiazolyl)alanine Amide of (1R,2S,2'S,3'S)-2-Amino-3-cyclohexyl-1-[3'-(ethyl)oxetan-2'-yl]-1-(hydroxy)propane]
The IC50 of the first is 3.2-fold higher: 0.65 nM for the first, 0.2 nM for the second. The second is the more potent here.
